Test results as given in patent publication US12234212B2, “Peptide conjugates of microtubule-targeting agents as therapeutics” (Cybrexa 3, Inc., priority 2019, dated 2025).

How the values were obtained:
DLD-1 WT cells = experiment: Growth delay assay, DLD-1; assay type: cell-based; settings: DLD-1 cells, 96 hours after addition of drug, cell count (Hoechst)
Description: (§1) Cells were plated in 96 well black walled-clear bottom plates (Griener), DLD-1 WT cells at 2500 cells per well, FaDu, and HeLa cells at 5000 cells per well, and HCT116 at 3000 cells per well, in growth media containing […]. Cells were allowed to adhere at room temperature for 60 minutes before returning to a 37 C, 5% CO2 incubator. After 24 hours, media was removed and replaced with fresh growth media containing various drug concentrations. Each drug concentration was added in triplicate. Non-drug treated controls contained growth media only. Cells were returned to the incubator. Ninety-six hours after addition of drug, cells were fixed with […] for 20 minutes and stained with Hoechst at 1 μg/mL. The plates were imaged on a Cytation 5 auto imager (BioTek) and cells were counted using CellProfiler (http://cellprofiler.org). The percent cell growth delay was calculated and data plotted using GraphPad Prism

HCT116 = experiment: Growth delay assay, HCT116; assay type: cell-based, human; settings: HCT116 cells, 96 hours after addition of drug, cell count (Hoechst)
Description: as §1

FaDu = experiment: Growth delay assay, FaDu; assay type: cell-based; settings: FaDu cells, 96 hours after addition of drug, cell count (Hoechst)
Description: as §1

HeLa cells = experiment: Growth delay assay, HeLa; assay type: cell-based; settings: 96 hours after addition of drug, cell count (Hoechst)
Description: as §1

[1] = test system: T1, Biotin-labeled human tubulin derived from HeLa cells (β-tubulin); experiment: Kinetic analysis of conjugate binding (Biacore surface plasmon resonance); settings: Biacore S200, 25° C., immobilized tubulin; read-out: KD (affinity constant, steady state) for β-tubulin
T1 construct: fused on or other part: Biotin label, used for capture on a streptavidin sensor chip
Description: Binding experiments were performed using a Biacore S200 instrument. A Series S sensor chip with pre-immobilized streptavidin was conditioned with 1 M NaCl in 50 mM NaOH. Biotin-labeled human tubulin derived from HeLa cells was immobilized to the sensor chip at a concentration of 125 μg/mL in HBS-P+ buffer at a flow rate of 10 μl/min. A final 3000 RU (response units) of protein was directly immobilized to the chip. After tubulin immobilization, the sensor chip was washed with 50% isopropanol, 50 mM NaOH and 1 M NaCl and subsequently allowed to equilibrate in assay buffer for 4 hours. A streptavidin-biotin capture blank (reference FC) was used to monitor non-specific binding.
To collect kinetic binding data, Compound 5 diluted in assay buffer was injected over the flow cells at concentrations ranging from 100 μM to 0.048 μM and 50 μM to 0.024 μM, at a flow rate of 60 μL/minute and a temperature of 25° C. The complex was allowed to dissociate for 60 seconds. Binding of compound to tubulin was monitored in real time to obtain on (Ka) and off (Koff) rates. The affinity constant (KD) was calculated by steady state kinetics.

[2] = test system: nude mice bearing HCT116 colorectal flank tumors; experiment: Mouse colorectal cancer model, Kaplan-Meier survival; assay type: in vivo; settings: IP, QDX4; DM4 0.42 μmole/kg; Compound 5 0.21-0.42 μmole/kg; post-dosing period
Description: Six-week-old female athymic nude Foxn^nu mice were obtained from Taconic Labs (Cat #NCRNU-F) and were housed 5 per cage on Alpha-Dri bedding in a disposable caging system. Human HCT116 cells derived from colorectal carcinoma were diluted 1:1 in Phenol Red-free Matrigel and subcutaneously implanted into the left flank of each mouse at a density of 2.5×10^6 cells in 100 μL. When xenografts reached a mean volume of 100-200 mm^3, mice were randomized into groups and treated as detailed in the table below. Mice were administered intraperitoneal (IP) doses of vehicle or 0.21, 0.29, 0.35, 0.42 μmole/kg Compound 5 (equivalent to 1.1, 1.4, 1.7, or 2 mg/kg Compound 5) or 0.42 μmole/kg unconjugated DM4 (equivalent to 0.33 mg/kg unconjugated DM4). Doses were prepared by diluting 0.1 mg/μL DMSO stocks in 5% mannitol in citrate buffer and were administered QDX4 with a two day interval between the second and third doses, at a volume of 12 mL/kg (300 μL per 25 g mouse). Xenograft tumors were measured by calipers and volume was calculated using the equation for ellipsoid volume: Volume=π/6×(length)×(width)^2. Body weight of animals was measured at the same time as tumor volume assessment. Animals were removed from the study due to death, tumor size exceeding 2000 mm^3 or loss of >20% body weight. Kaplan-Meier analysis was used to evaluate survival rate based on death or removal from study.

| SMILES | IC50 (DLD-1 WT cells; Homo sapiens) [nM] | IC50 (HCT116; Homo sapiens, HCT-116) [nM] | IC50 (FaDu; Homo sapiens) [nM] | IC50 (HeLa cells; Homo sapiens) [nM] | Kd [1] [nM] | survival / systemic toxicity (Kaplan-Meier) [2] | IC50 (DLD-1 WT cells) [nM] | IC50 (HCT116) [nM] | IC50 (FaDu) [nM] | IC50 (HeLa cells) [nM] |
| --- | --- | --- | --- | --- | --- | --- | --- | --- | --- | --- |
| COc1cc2cc(c1Cl)N(C)C(=O)C[C@H](OC(=O)[C@H](C)N(C)C(=O)CCC(C)(C)S)C1(C)O[C@H]1[C@H](C)[C@@H]1C[C@@](O)(NC(=O)O1)[C@H](OC)/C=C/C=C(\C)C2 (stereo partly drawn) [R^2SH-2, [(1S,2R,3S,6S,16E,18E,20R,21S)-11-chloro-21-hydroxy-12,20-dimethoxy-2,5,9,16-tetramethyl-8,23-dioxo-4,24-dioxa-9,22-diazatetracyclo[19.3.1.110,14.03,5]hexacosa-10,12,14(26),16,18-pentaen-6-yl] (2S)-2-[methyl-(4-methyl-4-sulfanyl-pentanoyl)amino]propanoate] | 0.45 | 0.2 | 0.13 | 0.02 | 3550 | spontaneous death of half of the DM4 group of animals |  |  |  |  |
| COc1cc2cc(c1Cl)N(C)C(=O)C[C@H](OC(=O)[C@H](C)N(C)C(=O)CCC(C)(C)SSC[C@H](NC(=O)[C@H](Cc1c[nH]c3ccccc13)NC(=O)[C@H](CC(C)C)NC(=O)[C@H](CC(C)C)NC(=O)[C@H](CC(=O)O)NC(=O)[C@H](CC(C)C)NC(=O)[C@H](CC(C)C)NC(=O)[C@H](CC(C)C)NC(=O)[C@@H](NC(=O)[C@H](CC(=O)O)NC(=O)[C@@H](NC(=O)[C@@H]1CCCN1C(=O)[C@H](Cc1ccccc1)NC(=O)[C@H](CC(C)C)NC(=O)[C@H](CC(C)C)NC(=O)[C@H](CC(=O)O)NC(=O)[C@H](CC(C)C)NC(=O)[C@H](Cc1ccc(O)cc1)NC(=O)[C@H](C)NC(=O)[C@H](CCCNC(=N)N)NC(=O)[C@H](Cc1c[nH]c3ccccc13)NC(=O)[C@@H]1CCCN1C(=O)[C@H](CC(N)=O)NC(=O)[C@H](CCC(N)=O)NC(=O)[C@H](CC(=O)O)NC(=O)[C@H](CC(=O)O)NC(=O)[C@H](C)N)[C@@H](C)O)[C@@H](C)O)C(=O)NCC(=O)O)[C@]1(C)O[C@H]1[C@H](C)[C@@H]1C[C@@](O)(NC(=O)O1)[C@H](OC)/C=C/C=C(\C)C2 [Compound 5] |  |  |  |  |  | safely delivers amounts of DM4 in vivo |  |  |  |  |
| COc1cc2cc(c1Cl)N(C)C(=O)C[C@H](OC(=O)[C@H](C)N(C)C(=O)CCSSC[C@H](NC(=O)[C@H](Cc1c[nH]c3ccccc13)NC(=O)[C@H](CC(C)C)NC(=O)[C@H](CC(C)C)NC(=O)[C@H](CC(=O)O)NC(=O)[C@H](CC(C)C)NC(=O)[C@H](CC(C)C)NC(=O)[C@H](CC(C)C)NC(=O)[C@@H](NC(=O)[C@H](CC(=O)O)NC(=O)[C@@H](NC(=O)[C@@H]1CCCN1C(=O)[C@H](Cc1ccccc1)NC(=O)[C@H](CC(C)C)NC(=O)[C@H](CC(C)C)NC(=O)[C@H](CC(=O)O)NC(=O)[C@H](CC(C)C)NC(=O)[C@H](Cc1ccc(O)cc1)NC(=O)[C@H](C)NC(=O)[C@H](CCCNC(=N)N)NC(=O)[C@H](Cc1c[nH]c3ccccc13)NC(=O)[C@@H]1CCCN1C(=O)[C@H](CC(N)=O)NC(=O)[C@H](CCC(N)=O)NC(=O)[C@H](CC(=O)O)NC(=O)[C@H](CC(=O)O)NC(=O)[C@H](C)N)[C@@H](C)O)[C@@H](C)O)C(=O)NCC(=O)O)[C@]1(C)O[C@H]1[C@H](C)[C@@H]1C[C@@](O)(NC(=O)O1)[C@H](OC)/C=C/C=C(\C)C2 [Compound 1] |  |  |  |  |  |  | 60.5 | 21.8 | 10.4 | 7.4 |
| COc1cc2cc(c1Cl)N(C)C(=O)C[C@H](OC(=O)[C@H](C)N(C)C(=O)CCS)C1(C)O[C@H]1[C@H](C)[C@@H]1C[C@@](O)(NC(=O)O1)[C@H](OC)/C=C/C=C(\C)C2 (stereo partly drawn) [R^2SH-1, [(1S,2R,3S,6S,16E,18E,20R,21S)-11-chloro-21-hydroxy-12,20-dimethoxy-2,5,9,16-tetramethyl-8,23-dioxo-4,24-dioxa-9,22-diazatetracyclo[19.3.1.110,14.03,5]hexacosa-10(26),11,13,16,18-pentaen-6-yl] (2S)-2-[methyl(3-sulfanylpropanoyl)amino]propanoate] | 9.8 | 4.3 | 2.8 | 2.6 |  |  |  |  |  |  |
